Measured values from patent US20100168099A1, “1H-QUINOLIN-4-ONE COMPOUNDS, WITH AFFINITY FOR THE GABA RECEPTOR, PROCESSES, USES AND COMPOSITIONS” (FERRER INTERNACIONAL, S.A., priority 2006, published 2010).

Tests used:
α1-GABAA receptor = assay: Ligand-binding assay, radiolabeled flumazenil competition, cerebellum membranes; design: species or system rat; conditions: for Affinity for the α1-subunit of the GABAA receptor, % inhibition: rat cerebellum membranes, radiolabeled flumazenil 1 nM; for affinity for α1-subunit of GABAA receptor (in words): compared with zolpidem where stated; for α1-/α2-selectivity (in words): compared with zolpidem
Experimental: (§1) a) Ligand-binding Assays. Determination of the Affinity of Test Compounds for α1- and α2-GABAA, Receptor
(§2) Male Sprague-Dawley rats weighing 200-250 g at the time of experiment were used. After decapitation of the animal, the cerebellum (tissue that mostly contains α1-GABAA receptor) and spinal cord (tissue that mostly contains α2-GABAA receptor) were removed. The membranes were prepared according to the method by J. Lameh et al. (Prog. Neuro-Psychopharmacol. Biol. Psychiatry, 24, 979-991, 2000) and H. Noguchi et al. (Eur J Pharm, 434, 21-28, 2002) with slight modifications. Once the tissues weighed, they were suspended in 50 mM Tris.HCl (pH 7.4), 1:40 (v/v), or sucrose 0.32 M in the case of spinal cord, homogenized and then centrifuged at 20,000 g for 10 min at 7° C. The resulting pellet was resuspended under the same conditions and centrifuged again. The pellet was finally resuspended on a minimum volume and kept at −80° C. overnight. On the next day, the process was repeated until the final pellet was resuspended at a ratio of 1:10 (v/v) in the case of cerebellum and at a ratio of 1:5 (v/v) in the case of spinal cord.
(§3) Affinity was determined by competitive tests using radiolabeled flumazenil as ligand. The tests were performed according to the methods described by S. Arbilla et al. (Eur. J. Pharmacol., 130, 257-263, 1986); and Y. Wu et al. (Eur. J. Pharmacol., 278, 125-132, 1995) using 96-well microtiter plates. The membranes containing the study receptors, flumazenil (radiolabeling at a final concentration of 1 nM) and ascending concentrations of test compounds (in a total volume of 230 μL in 50 mM [pH 7.4] Tris.HCl buffer) were incubated. Simultaneously, the membranes were only incubated with the radiolabeled flumazenil (total binding, 100%) and in the presence of an elevated concentration of unradiolabeled flumazenil (non-specific binding, % estimation of radiolabeled ligand). The reactions started on adding the radiolabeled ligand followed by incubation for 60 minutes at 4° C. At the end of the incubation period, 200 μL of reaction were transferred to a multiscreen plate (Millipore) and filtered using a vacuum manifold and then washed three times with cold test buffer. The multiscreen plates were equipped with a GF/B filter that retained the membranes containing the receptors and the radiolabeled ligand which had been bound to the receptors. After washing, the plates were left till dry. Once dried, scintillation liquid was added and left under stirring overnight. The next day the plates were counted using a Perkin-Elmer Microbeta scintillation counter.
(§4) For analysis of the results the percentage of specific binding for every concentration of test compound was calculated as follows:
(§5) % specific binding=(X−N/T−N)×100
(§6) where, X: amount of bound ligand for every concentration of compound. T: total binding, maximum amount bound to the radiolabeled ligand. N: non-specific binding, amount of radiolabeled ligand bound in a non-specific way irrespective of the receptor used.
(§7) Every concentrations of compound were tested in triplicate and their mean values were used to determine the experimental values of % specific binding versus the concentration of compound. Affinity data are expressed as % inhibition at 10^−5M and 10^−7M concentrations.

α2-GABAA receptor = assay: Ligand-binding assay, radiolabeled flumazenil competition, spinal cord membranes; design: species or system rat; conditions: for Affinity for the α2-subunit of the GABAA receptor, % inhibition: rat spinal cord membranes, radiolabeled flumazenil 1 nM
Experimental: as §1, §2, §3, §4, §5, §6, §7

[1] = system: spontaneous motor activity of male CD1 mice; assay: In vivo predictive sedation-hypnosis test (traveled distance); conditions: Mus musculus, ip, 0.5 h, 98 μmol/kg, single intraperitoneal dose, 30 minutes after dosing (first 5 min discarded), versus control
Experimental: b) In Vivo Determination of Predictive Sedative-Hypnotic Action
The in vivo effects of these compounds were assessed by a predictive sedation-hypnosis test in mice (D. J. Sanger et al., Eur. J. Pharmacol., 313, 35-42, 1996; and G. Griebel et al., Psychopharmacology, 146, 205-213, 1999).
Groups of 5-8 male CD1 mice, weighing 22-26 g at the time of test, were used. The test compounds were administered in single equimolecular intraperitoneal doses, suspended in 0.25% agar with one drop of Tween in a volume of 10 mL/kg. Control animals received the vehicle alone. Using a Smart System (Panlab, S. L., Spain) the traveled distance in cm was recorded for each mouse at 5 min intervals during a period of 30 minutes after dosing. The inhibition percentage traveled distance of treated animals versus control animals (the first 5 min were discarded) was calculated.

Row | SMILES | Affinity for the α1-subunit of the GABAA receptor, % inhibition (α1-GABAA receptor; 10^−5M) [%] | Affinity for the α1-subunit of the GABAA receptor, % inhibition (α1-GABAA receptor; 10^−7M) [%] | Affinity for the α2-subunit of the GABAA receptor, % inhibition (α2-GABAA receptor; 10^−5M) [%] | Affinity for the α2-subunit of the GABAA receptor, % inhibition (α2-GABAA receptor; 10^−7M) [%] | affinity for the α2-subunit of GABAA receptor (in words) (α2-GABAA receptor; compared with zolpidem where stated) | inhibition in vivo at 98 µmol/kg [1] [%] | affinity for α1-subunit of GABAA receptor (in words) (α1-GABAA receptor) | α1-/α2-selectivity (in words) (α1-GABAA receptor)
1 | Cc1ccc2c(=O)c(-c3ccccc3)cn(CC(=O)c3cccs3)c2c1 [Example 27, 7-Methyl-1-(2-oxo-2-thiophen-2-yl-ethyl)-3-phenyl-1H-quinolin-4-one] | 97.7 | 14.0 | 89.9 | 8.4 | higher affinity than prior art compound zolpidem | 70 | – | –
2 | Cc1cccc2c1c(=O)cc(-c1ccccc1)n2CC(=O)N1CCCC1 [Example 11, 5-Methyl-1-(2-oxo-2-pyrrolidin-1-yl-ethyl)-2-phenyl-1H-quinolin-4-one] | 99.9 | 52.6 | – | – | – | – | higher affinity | –
3 | CCCN(CCC)C(=O)Cn1cc(-c2ccccc2)c(=O)c2ccc(C)cc21 [Example 14, 2-(7-Methyl-4-oxo-3-phenyl-4H-quinolin-1-yl)-N,N-dipropyl-acetamide] | 98.4 | 36.7 | 77.3 | 40.6 | – | 96.2 | higher affinity | –
4 | Cc1ccc2c(=O)c(-c3ccccc3)cn(CC(=O)N3CCCCC3)c2c1 [Example 15, 7-Methyl-1-(2-oxo-2-piperidin-1-yl-ethyl)-3-phenyl-1H-quinolin-4-one] | 87.3 | 0.0 | 13.3 | 0.0 | – | 84.7 | – | higher α1-/α2-selectivity than the most selective therapeutically used compound zolpidem
5 | CCCN(CCC)C(=O)Cn1cc(-c2ccc(OC)cc2)c(=O)c2ccc(C)cc21 [Example 36, 2-[3-(4-Methoxy-phenyl)-7-methyl-4-oxo-4H-quinolin-1-yl]-N,N-dipropyl-acetamide] | 95.9 | 20.3 | – | – | – | 92.1 | – | –
6 | C=CCN(CC=C)C(=O)Cn1cc(-c2ccccc2)c(=O)c2ccc(Br)cc21 [Example 129, N,N-Diallyl-2-(7-bromo-4-oxo-3-phenyl-4H-quinolin-1-yl)-acetamide] | 99.7 | 85.2 | – | – | – | 93.5 | higher affinity | –
7 | CCCN(CC1CC1)C(=O)Cn1cc(-c2ccccc2)c(=O)c2ccc(C)cc21 [Example 39, N-Cyclopropylmethyl-2-(7-methyl-4-oxo-3-phenyl-4H-quinolin-1-yl)-N-propyl-acetamide] | 98.8 | 56.3 | 93.4 | 28.5 | – | 92.5 | higher affinity | –
8 | CCN(CC)C(=O)Cn1cc(-c2ccccc2)c(=O)c2ccc(C)cc21 [Example 17, N,N-Diethyl-2-(7-methyl-4-oxo-3-phenyl-4H-quinolin-1-yl)-acetamide] | 91.4 | 0.7 | 70.1 | 0.0 | – | 81.5 | – | –
9 | Cc1ccc2c(=O)c(-c3ccccc3)cn(CC(=O)N3CCCC3)c2c1 [Example 18, 7-Methyl-1-(2-oxo-2-pyrrolidin-1-yl-ethyl)-3-phenyl-1H-quinolin-4-one] | 86.2 | 7.5 | 66.3 | 0.0 | – | 84.5 | – | higher α1-/α2-selectivity than the most selective therapeutically used compound zolpidem
10 | Cc1ccc2c(=O)c(-c3ccccc3)cn(CC(=O)c3ccccn3)c2c1 [Example 28, 7-Methyl-1-(2-oxo-2-pyridin-2-yl-ethyl)-3-phenyl-1H-quinolin-4-one] | 97.9 | 22.5 | 88.0 | 0.0 | – | 84.4 | – | –
11 | Cc1ccc2c(=O)c(-c3ccccc3)cn(CC(=O)N3C(C)C=CC3C)c2c1 (centres unmarked) [Example 42, 1-[2-(2,5-Dimethyl-2,5-dihydro-pyrrol-1-yl)-2-oxo-ethyl]-7-methyl-3-phenyl-1H-quinolin-4-one] | 97.0 | 25.6 | 74.1 | 0.0 | – | 92.2 | – | –
12 | Cc1ccc2c(=O)c(-c3ccccc3)cn(CC(=O)c3oc(C)nc3C)c2c1 [Example 33, 1-[2-(2,4-Dimethyl-oxazol-5-yl)-2-oxo-ethyl]-7-methyl-3-phenyl-1H-quinolin-4-one] | 97.0 | 33.9 | – | – | – | 91.7 | – | –
13 | Cc1cccc2c1c(=O)cc(-c1ccccc1)n2CC(=O)N1CCOCC1 [Example 1, 5-Methyl-1-(2-morpholin-4-yl-2-oxo-ethyl)-2-phenyl-1H-quinolin-4-one] | 99.5 | 57.9 | – | – | – | – | higher affinity | –
14 | CCCN(CCC)C(=O)Cn1cc(-c2ccccc2)c(=O)c2ccc(Br)cc21 [Example 44, 2-(7-Bromo-4-oxo-3-phenyl-4H-quinolin-1-yl)-N,N-dipropyl-acetamide] | 99.8 | 61.9 | – | – | – | 95.2 | higher affinity | –
